Read-outs that look alike come from different tables or passages of the source.
Assays:
PGE2 = assay: Inhibition of prostaglandin synthesis (PGE2) in LPS-stimulated macrophage cell cultures; format: cell-based; settings: LPS-stimulated macrophages
Text: (§1) Evaluation of the therapeutic effects of the novel PRS-211 compounds has now been carried out in a series of experimental systems to support the utility of these drugs as neuroprotectants, anti-inflammatory agents and anti-oxidative agents. These effects have been evaluated both in vitro and in vivo, and have been corroborated utilizing the following systems: • (a) Binding to the NMDA receptor linked channel: Non competitive antagonists of NMDA, the primary example of which is the compound MK-801, bind to a site within the NMDA receptor channel thus preventing the activation of the receptor-channel complex and the consequent neurotoxicity. The ability of various compounds to compete with the binding of tritium labeled MK-801 to brain membranes is considered a measure of their potency as NMDA non-competitive antagonists. • (b) Inhibition of prostaglandin production: The inhibitory effect of the new derivatives of Dexanabinol on prostaglandin synthesis is evaluated in macrophage cell cultures following LPS exposure to induce the inflammatory response. These assays are an indication of the anti-inflammatory activity of the individual analogs. • (c) Inhibition of Tumor Necrosis Factor Alpha: Specific aspects of the inflammatory response cascade are mediated by the cytokine TNFα. Inhibition of TNFα production and/or inhibition of TNFα release by the new analogs are assayed in macrophage cell cultures activated with LPS. This serves as another indication of the general anti-inflammatory potential of the novel compounds. • (d) Nitric Oxide Assay: As one aspect of the anti-oxidative potential of the novel analogs they were tested for their ability to inhibit the enzyme nitric oxide synthase (NOS). This assay can also serve as another indication of the anti-inflammatory cascade, as well as the anti-oxidative mechanisms. • (e) Ear Edema model: The anti-inflammatory activity of the new analogs is screened using an ear edema model in mice. This test system utilizes Croton oil or Arachidonic acid as inflammation inducers. The ability of the test compounds to prevent or diminish the inflammatory response to these stimulants is indicative of their systemic anti-inflammatory capability. • (f) Improved clinical outcome after closed head injury in rats: Severe head injury is associated with high mortality and severe neurological impairment. Animals subjected to head trauma in a controlled fashion serve as models in which to test drugs of therapeutic potential. Test compounds can be evaluated both for improved clinical outcome and for reduction of edema induced by closed head injury. The ability of compounds to reduce the severity of neurological symptoms and to reduce brain edema is considered a measure of their potency in reducing brain damage. • (g) Transient Middle cerebral artery occlusion (MCAo): The middle cerebral artery is the cerebral blood vessel most susceptible to stroke in humans. In animals, coagulation, permanent ligation or permanent placement of an occluding thread in the artery produces a permanent focal stroke affecting the MCA territory. Transient ligation or occlusion results in transient focal stroke. Both transient and permanent focal strokes result in varying degrees of edema and infarction in the affected brain regions. The ability of compounds to reduce the volumes of edema and infarction is considered a measure of their potential as anti-stroke treatment. • (h) Optic Nerve Crush: Application of mechanical pressure to the rat optical nerve results in crush injury of the axons, which is accompanied by immediate changes in oxidative metabolism and delayed axonal death and blindness. […]

TNFα = assay: Inhibition of TNFα in LPS-stimulated macrophage cell cultures (ELISA); format: cell-based; settings: LPS-stimulated macrophages
Text: as §1

[1] = system: Nitric Oxide Synthase (NOS); assay: Inhibition of nitric oxide synthase (nitrite fluorimetric assay, LPS-stimulated macrophage cultures); format: cell-based; settings: LPS-stimulated macrophages
Text: as §1

NMDA receptor = assay: Radioligand binding: displacement of [3H]MK-801 from rat forebrain membranes; settings: for NMDA receptor binding / affinity: MK-801 binding to membranes
Text: as §1

[2] = system: transient middle cerebral artery occlusion in rats; assay: Transient middle cerebral artery occlusion (MCAo), infarct size evaluation; format: in vivo; settings: for Mortality rate: 5 mg/kg IV at 2+0 hours
Text: Experimental design. The design was a randomized one, performed in a masked fashion as to whether drug or vehicle was being given, and an attempt was made to generate approximately equal numbers of drug- and vehicle-treated animals.
• a. Male rats (8 /treatment group) 320-380 gr. (Harlan Israel). • b. Halothane (Rhone Poulenc France) • c. Pentobarbitone (Pental Veterinary, CTS Israel). • d. Poly - L - Lysine (Sigma, USA). • e. Silk suture material 3-0 and 4-0. • f. Nylon (Polyamid) suture material 3-0. Four cm pieces were cut and positioned in a solution of 1% Poly - L - Lysine for 1 minute and dried in an oven (60 ° C) for 60 minutes. The tip of each piece was rounded under a flame. • g. Saline (Teva Medical). • h. Blank cremophor ethanol cosolvent (Pharmos). • i. Dexanabinol in cremophor ethanol cosolvent 50 mg/ml. (Both Dexanabinol and its vehicle were diluted in saline prior to drug administration. • j. Analogs PRS-211,092, PRS-211,095, PRS-211,128 PRS-211,132 and PRS-211,220 in cremophor ethanol cosolvent, 50 mg/ml. • k. The analogs were diluted in saline prior to drug administration.
• a. Surgical details of the MCAo method used for testing dexanabinol analogs, are presented in Belayev, et al., (Belayev, Busto, Weizhao, and Ginsberg, Stroke 26:2313-2319, 1995) which is incorporated herein in its entirety by reference. • b. Two hours after the start of MCAO, the animals were reanesthetized with halothane, the neck wound was re-opened and the nylon thread pulled out of the Internal carotid artery (ICA). The skin wound was then closed with 3-0 silk suture material and the animals allowed to recover from the anesthesia. • c. Three sets of animals were tested. In the first test immediately (2+0 hours) before thread removal the animals were injected IV with either analogs PRS-211,095, PRS-211,128, PRS-211,132, or Dexanabinol (PRS-211,007) each at a dosage of 5 mg/kg. One group of animals was treated with 5ml/kg vehicle alone. In another group, the animals subjected to "sham" operation, the suture was passed into the ICA, as described above, but immediately withdrawn. In the second set dexanabinol, PRS-211,092, PRS-211,095 and PRS-211,220 were used, at 2+0 hours. In the third set dexanabinol, PRS-211,092, PRS-211,095 and PRS-211,220 were administered 1 hour after thread removal (2+1 hours). Laser Doppler Flow (LDF) determined the success of MCAo - a drop of more then 50% in cerebral blood flow was considered as a sign of successful MCAo. Although LDF was a helpful corroborative sign, clinical outcome remained the final inclusion/exclusion criterion, since, with the exception of the PRS-211,220 staircase study, LDF was introduced only after initiation of the study.
A detailed investigation of neurological performance was carried out on the first, third and the 7th day after the MCAo. Two parameters were examined: posture and the flexion reflex (based on Nokon and Chuang, NeuroReport 9, 1998: 2081-2084). Animals were scored according to their performance:
One week after the ischemic insult, animals were euthanized with pentobarbitone 100 mg/kg IP. The animals were perfused through the heart with heparinized 4% formaldehyde solution in PBS (pH 7.4). Brains were then removed, and kept in the same solution before preparation for histological evaluation of the brain infarct volume.

ear edema model in mice = assay: Ear edema model; format: in vivo; settings: Mus musculus, Croton oil (CO) as inducer, IP
Text: as §1

[3] = displacement of [3H]MK-801, rat forebrain membranes, read-out: NMDA BINDING IC50
[4] = [3H]MK-801 binding, text to Figure 2, read-out: mean IC50

## CCCCCCC(C)(C)c1cc(O)c2c(c1)OC(C)(C)[C@H]1CC=C(CN3CCC(C)CC3)C[C@H]21 (single isomer, unassigned) [211,251-000]
PGE2
  inhibition at 10 µM: 91%
TNFα
  inhibition at 10 µM: 0%
[1]
  inhibition at 10 µM: 37%
NMDA receptor
  NMDA receptor binding / affinity: do not exhibit substantial NMDA receptor binding
NMDA receptor; [3]
  IC50: > 100 µM

## CCCCCCC(C)(C)c1cc(O)c2c(c1)OC(C)(C)[C@H]1CC=C(CN3CCC(N4CCCCC4)CC3)C[C@H]21 (single isomer, unassigned) [211,257-000]
PGE2
  inhibition at 10 µM: 88%
TNFα
  inhibition at 10 µM: 10%
[1]
  inhibition at 10 µM: 39%
NMDA receptor
  NMDA receptor binding / affinity: do not exhibit substantial NMDA receptor binding
NMDA receptor; [3]
  IC50: > 100 µM

## CCCCCCC(C)(C)c1cc(O)c2c(c1)OC(C)(C)[C@H]1CC=C(CN3CCCC3)C[C@H]21 (stereo in doubt) [211,128-000]
PGE2
  inhibition at 10 µM: 84%
TNFα
  inhibition at 10 µM: 48%
[1]
  inhibition at 10 µM: 27%
NMDA receptor
  NMDA receptor binding / affinity: no detectable affinity
NMDA receptor; [4]
  IC50: > 20 µM
NMDA receptor; [3]
  IC50: > 20 µM
[2]
  function, reduction of mortality and brain morphometry: inactive
  Mortality rate: around 25%
Ear edema model in mice
  ED50: 23 µmol/kg

## CCCCCCC(C)(C)c1cc(O)c2c(c1)OC(C)(C)[C@H]1CC=C(CN3CCCCC3)C[C@H]21 (stereo in doubt) [211,159-000]
PGE2
  inhibition at 10 µM: 87%
TNFα
  inhibition at 10 µM: 33%
[1]
  inhibition at 10 µM: 27%
NMDA receptor; [3]
  IC50: > 20 µM

## CCCCCCC(C)(C)c1cc(O)c2c(c1)OC(C)(C)[C@H]1CC=C(CC#N)C[C@H]21 [211,006-000]
PGE2
  inhibition at 10 µM: 41%
TNFα
  inhibition at 10 µM: 46%
[1]
  inhibition at 10 µM: 19%
NMDA receptor; [3]
  IC50: 8 µM
Ear edema model in mice
  ED50: 104 µmol/kg

## CCCCCCC(C)(C)c1cc(O)c2c(c1)OC(C)(C)[C@H]1CC=C(C[S+](C)[O-])C[C@H]21 (stereo partly drawn) [211,041-000]
PGE2
  inhibition at 10 µM: 56%
TNFα
  inhibition at 10 µM: 23%
[1]
  inhibition at 10 µM: 72%
NMDA receptor; [3]
  IC50: 6 µM
Ear edema model in mice
  ED50: 39 µmol/kg

## CCCCCCC(C)(C)c1cc(O)c2c(c1)OC(C)(C)[C@H]1CC=C(CNC(C)=O)C[C@H]21 [211,044-000]
PGE2
  inhibition at 10 µM: 24%
TNFα
  inhibition at 10 µM: 0%
NMDA receptor; [3]
  IC50: 6 µM

## CC(C)(C)c1cc(O)c2c(c1)OC(C)(C)[C@H]1CC=C(CO)C[C@H]21 [211,047-000]
PGE2
  inhibition at 10 µM: 28%
TNFα
  inhibition at 10 µM: 0%
NMDA receptor; [3]
  IC50: 100 µM

## CCCCCCC(C)(C)c1cc(O)c2c(c1)OC(C)(C)[C@H]1CC=C(Cn3cncn3)C[C@H]21 [211,102-000]
NMDA receptor; [3]
  IC50: 2.5 µM

## CCCCCCC(C)(C)c1cc(O)c2c(c1)OC(C)(C)[C@H]1CC=C(Cn3cnnc3)C[C@H]21 [211,103-000]
NMDA receptor; [3]
  IC50: 3 µM

## CCCCCCC(C)(C)c1cc(O)c2c(c1)OC(C)(C)[C@H]1CC=C(Cc3cccs3)C[C@H]21 [211,118-000]
NMDA receptor; [3]
  IC50: 32 µM

## CCCCCCC(C)(C)c1cc(O)c2c(c1)OC(C)(C)[C@H]1CC=C(Cc3ccccc3)C[C@H]21 [211,119-000]
PGE2
  inhibition at 10 µM: 14%
NMDA receptor; [3]
  IC50: 62 µM

## CCCCCCC(C)(C)c1cc(O)c2c(c1)OC(C)(C)[C@H]1CC=C(CN3CCOCC3)C[C@H]21 [211,132-000]
PGE2
  inhibition at 10 µM: 61%
TNFα
  inhibition at 10 µM: 21%
[1]
  inhibition at 10 µM: 40%
NMDA receptor; [4]
  IC50: 4.5 µM
NMDA receptor; [3]
  IC50: 4.5 µM
[2]
  Mortality rate: around 25%
Ear edema model in mice
  ED50: 70 µmol/kg

## CCCCCCC(C)(C)c1cc(O)c2c(c1)OC(C)(C)[C@H]1CC=C(CN3CCNCC3)C[C@H]21 [211,133-000]
NMDA receptor; [3]
  IC50: > 100 µM

## CCCCCCC(C)(C)c1cc(O)c2c(c1)OC(C)(C)[C@H]1CC=C(CN3CCNC(C)C3)C[C@H]21 (stereo partly drawn) [211,134-000]
NMDA receptor; [3]
  IC50: > 100 µM

## CCCCCCC(C)(C)c1cc(O)c2c(c1)OC(C)(C)[C@H]1CC=C(CN3CC=CCC3)C[C@H]21 [211,145-000]
PGE2
  inhibition at 10 µM: 63%
TNFα
  inhibition at 10 µM: 15%
[1]
  inhibition at 10 µM: 60%
NMDA receptor; [3]
  IC50: 13 µM

## CCCCCCC(C)(C)c1cc(O)c2c(c1)OC(C)(C)[C@H]1CC=C(CN3CCN=C3SC)C[C@H]21 [211,204-000]
PGE2
  inhibition at 10 µM: 83%
TNFα
  inhibition at 10 µM: 28%
[1]
  inhibition at 10 µM: 85%
NMDA receptor; [3]
  IC50: 10 µM
[2]; IV, one week after the ischemic insult
  reduction of infarct size: 50%
Ear edema model in mice
  ED50: 34 µmol/kg

## CCCCCCC(C)(C)c1cc(O)c2c(c1)OC(C)(C)[C@H]1CC=C(COCC(O)CO)C[C@H]21 (stereo partly drawn) [211,211-000]
PGE2
  inhibition at 10 µM: 83%
TNFα
  inhibition at 10 µM: 18%
[1]
  inhibition at 10 µM: 0%
NMDA receptor; [3]
  IC50: 4.6 µM

## CCCCCCC(C)(C)c1cc(O)c2c(c1)OC(C)(C)[C@H]1CC=C(CN3CC=CC3)C[C@H]21 [211,212-000]
PGE2
  inhibition at 10 µM: 96%
TNFα
  inhibition at 10 µM: 14%
[1]
  inhibition at 10 µM: 0%
NMDA receptor; [3]
  IC50: 7.5 µM

## CCCCCCC(C)(C)c1cc(O)c2c(c1)OC(C)(C)[C@H]1CC=C(CN3CCC(N4CCCC4)CC3)C[C@H]21 [211,253-000]
PGE2
  inhibition at 10 µM: 92%
TNFα
  inhibition at 10 µM: 0%
[1]
  inhibition at 10 µM: 27%
NMDA receptor
  NMDA receptor binding / affinity: do not exhibit substantial NMDA receptor binding
NMDA receptor; [3]
  IC50: > 100 µM

## CCCCCCC(C)(C)c1cc(O)c2c(c1)OC(C)(C)[C@H]1CC=C(CN(Cc3ccccc3)c3ccccc3)C[C@H]21 [211,255-000]
PGE2
  inhibition at 10 µM: 94%
TNFα
  inhibition at 10 µM: 0%
[1]
  inhibition at 10 µM: 7%
NMDA receptor
  NMDA receptor binding / affinity: do not exhibit substantial NMDA receptor binding
NMDA receptor; [3]
  IC50: > 100 µM

— EP1785417A2, “Novel non-psychotropic cannabinoids” (priority 2000, dated 2001)
